PMC10026069, “Retinal–Carotenoid Interactions in a Sodium-Ion-Pumping Rhodopsin: Implications on Oligomerization and Thermal Stability” (The Journal of Physical Chemistry. B, 2023)
Values joined by “and” are separate entries in the source; they are usually repeats but may differ in a detail not shown here. Equal entries are not always repeated.

Legend:
[1] = biological target: T1, DDR2 (Nonlabens (Donghaeana) dokdonensis rhodopsin, sodium-ion-pumping rhodopsin) (Nonlabens dokdonensis, UniProt A0ABX5Q1D8); experiment: absorption spectroscopy of the pigment; format: binding; conditions: covalent, protonated Schiff base to lysine; pH 8, room temperature
T1 construct: gene LX97_00829; pentamer at neutral pH
T1 sequence (A0ABX5Q1D8 1-279): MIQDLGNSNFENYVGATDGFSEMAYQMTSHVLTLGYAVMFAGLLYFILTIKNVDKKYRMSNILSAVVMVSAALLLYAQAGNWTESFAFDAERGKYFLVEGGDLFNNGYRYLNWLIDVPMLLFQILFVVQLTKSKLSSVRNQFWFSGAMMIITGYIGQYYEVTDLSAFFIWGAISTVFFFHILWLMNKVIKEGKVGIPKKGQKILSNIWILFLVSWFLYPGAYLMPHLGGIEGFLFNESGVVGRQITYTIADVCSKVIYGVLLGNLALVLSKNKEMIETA

[2] = biological target: Nonlabens (Donghaeana) dokdonensis rhodopsin (DDR2) (Nonlabens (Donghaeana) dokdonensis); experiment: SEC; AKTA FPLC; DDM-solubilised DDR2 at pH 7 or 9; apparent masses from soluble protein markers; 0.06% DDM, 300 mM NaCl; also run with salinixanthin bound (oligomeric form not affected)

## CC1=C(/C=C/C(C)=C/C=C/C(C)=C/C=O)C(C)(C)CCC1 [all-trans retinal]
[1]
  absorption spectroscopy of the pigment: absorption of the all-trans retinal chromophore covalently bound to the protein

## Nonlabens (Donghaeana) dokdonensis rhodopsin (DDR2) (natural protein)
[2]
  stoichiometry N: 5 and 10
